Measurements as given in patent US20260166121A1, “COMPOSITIONS AND METHODS FOR THE TREATMENT OF HEMORRHAGIC SHOCK” (Children's Hospital Medical Center, priority 2022, published 2026).

Legend:
[1] = tested on: AMPKα1 wild-type (WT) and knockout (KO) mice; experiment: Transmission electron microscopy of heart tissue mitochondria after hemorrhagic shock; type: in vivo; conditions: 100 μg/kg intra-arterially
Description: (§1) Murine model of hemorrhagic shock. The experiments conformed to the Guide for the Care and Use of Laboratory Animals published by the US National Institutes of Health (Eighth edition, 2011) and had the approval of the Institutional Animal Care and Use Committee. Homozygous AMPKα1 wild-type (WT) and AMPKα1 knockout (KO) mice were established on a C57/BL6 genetic background by the crossbreeding (>10 generations) of a breeding pair provided by Dr. Benoit Viollet of the University of Paris Descartes (Paris, France). For these experiments, female AMPKα1 WT and KO mice were generated by a breeding scheme utilizing heterozygous mutant mice. Female mice were used at random stages of the estrous cycle at the age of 3 to 5 months and assigned to the different experimental groups after routine genotyping by quantitative polymerase chain reaction. All mice were allowed free access to water and a maintenance diet in a 12-h light/dark cycle, with room temperature at 21±2° C. […] Mice were monitored for 3 hours after resuscitation for cardiovascular parameters. […]
Transmission electron microscopy. […] The total number of mitochondria, and the presence of abnormal mitochondria with loose matrix, fragmented cristae and membranes were determined in four consecutive cells in four different sections for each animal by using NIH ImageJ analysis.

[2] = tested on: AMPKα1 wild-type (WT) and knockout (KO) mice; experiment: Plasma levels of cytokines (multiplex array) after hemorrhagic shock; type: in vivo; conditions: AMPKα1 WT or KO mice; 100 μg/kg intra-arterially; 3 h after resuscitation
Description: as §1
Plasma levels of cytokines. Plasma levels of interleukin (IL)-1β, IL-6, IL-10, IL-17, keratinocyte-derived chemokine (KC), and tumor necrosis factor-α (TNFα) were evaluated by a commercially available multiplex array system (Linco-Research, St. Charles, MO) using the protocol recommended by the manufacturer.

STAT3 = experiment: Western blot of STAT3, pSTAT3(Ser727), pSTAT3(Tyr705) in cytosol and nuclear extracts of lung and heart; type: in vivo, mice
Description: Murine model of hemorrhagic shock. The experiments conformed to the Guide for the Care and Use of Laboratory Animals published by the US National Institutes of Health (Eighth edition, 2011) and had the approval of the Institutional Animal Care and Use Committee. Homozygous AMPKα1 wild-type (WT) and AMPKα1 knockout (KO) mice were established on a C57/BL6 genetic background by the crossbreeding (>10 generations) of a breeding pair provided by Dr. Benoit Viollet of the University of Paris Descartes (Paris, France). For these experiments, female AMPKα1 WT and KO mice were generated by a breeding scheme utilizing heterozygous mutant mice. Female mice were used at random stages of the estrous cycle at the age of 3 to 5 months and assigned to the different experimental groups after routine genotyping by quantitative polymerase chain reaction. All mice were allowed free access to water and a maintenance diet in a 12-h light/dark cycle, with room temperature at 21±2° C. Mice were anesthetized with pentobarbital (80 mg/kg) intraperitoneally and prepared for hemorrhagic shock, as previously described. Briefly, either the left or right femoral artery was cannulated using PE-10 tubing, and connected to a blood pressure transducer (PowerLab, AD Instruments, Colorado Springs, CO) for measurement of mean arterial blood pressure (MABP) and heart rate (HR). Blood was removed from the femoral artery over a 10-minute period until MABP reached 30±5 mmHg. The mice were kept in this MABP range for 90 min by additional blood removal or small volume transfusion. At the end of the shock period, mice were resuscitated by infusing their shed blood and twice that amount in Lactated Ringer's solution over a 10-min period. AMPKα1 WT and KO mice were also randomly assigned to two treatment groups: a vehicle group (distilled water, 500 μL) and a humanin-G (100 μg/kg) group. Drug treatment was given intra-arterially as single bolus right before resuscitation, and at 1 and 2 hours thereafter. Dose of humanin was chosen according to reported pharmacokinetics and pharmacodynamics of the drug in the mice. Mice were monitored for 3 hours after resuscitation for cardiovascular parameters. […] Mice were sacrificed at 3 hours after resuscitation and blood, heart and lungs were collected for biochemical assays.
Cytosol and nuclear extracts. Heart and lung tissues were homogenized using a Polytron homogenizer (Brinkman Instruments, West Orange, NY) in a buffer containing 0.32 M sucrose, 10 mM TrisHCl (pH 7.4), 1 mM EGTA, 2 mM EDTA, 5 mM NaN3, 10 mM β-mercaptoethanol, […], 0.15 mM pepstatin A, 0.2 mM phenylmethanesulfonyl fluoride, 50 mM NaF, 1 mM sodium orthovanadate, and 0.4 nM microcystin. Samples were centrifuged at 1,000 g for 10 min at […] and the supernatants collected as cytosol extracts. The pellets were then solubilized in Triton buffer (1% Triton X-100, 250 mM NaCl, 50 mM Tris HCl at pH 7.5, 3 mM EGTA, 3 mM EDTA, 0.1 mM phenylmethanesulfonyl fluoride, 0. 1 mM sodium orthovanadate, 10% glycerol, 2 mM p-nitrophenyl phosphate, 0.5% NP-40, and […]). The lysates were centrifuged at 15,000 g for 30 min at […] and the supernatant collected as nuclear extracts. The Bradford protein assay was used for quantitative determination of total proteins.
Western blot analysis. Cytosol and nuclear content of STAT3 and its two phosphorylated active forms pSTAT3(Tyr705) and pSTAT3(Ser727), and mitochondrial content of pSTAT3(Ser727) and the Complex I subunit GRIM-19 (gene associated with retinoid-IFN-induced mortality) were determined by immunoblotting analyses. Extracts were heated at 70° C. in equal volumes of ×4 Protein Sample Loading Buffer. Twenty μg of protein were loaded per lane on a 10% Bis-Tris gel. Proteins were separated electrophoretically and transferred to nitrocellulose membranes. […]

[3] = heart, WT mice, 100 μg/kg intra-arterially
[4] = lung, mice of both genotypes, 100 μg/kg intra-arterially

Substance: [Gly14]-Humanin (MAPRGFSCLLLLTGEIDLPVKRRA) [humanin-G, synthetic humanin analogue, serine at position 14 replaced by glycine]
- cardiac mitochondrial damage ([1]; AMPKα1 KO mice, 3 h after resuscitation): reduced
- cardiac mitochondrial structural changes ([1]; AMPKα1 WT mice after hemorrhagic shock): No abnormal structural changes
- plasma levels of cytokines (IL-1β, IL-6, IL-10, IL-17, KC, TNFα) [2]: did not affect
- cytosolic or nuclear expression of pSTAT3(Ser727) in heart (STAT3; [3]): did not affect
- cytosolic or nuclear expression of pSTAT3(Tyr705) in heart (STAT3; [3]): did not affect
- total levels of STAT3 in heart (STAT3; heart, across experimental groups, WT or KO mice): no difference
- total levels of STAT3 in lung (STAT3; lung, across experimental groups, WT or KO mice): no difference
- pSTAT3(Ser727) in lung cytosol and nucleus (STAT3; [4]): upregulated only in the nucleus
- pSTAT3(Tyr705) in lung cytosol and nucleus (STAT3; [4]): further upregulated
